Assay results: US9278994B2, “Short antimicrobial lipopeptides” (Helix BioMedix Inc., priority 2012, dated 2016)
Converted amounts (≈) assume the structure as drawn. Where a SMILES comes first, the peptide text is derived from it. [ ]: non-standard residue; d: D form. The star is where a group is joined. Palmitoyl = CCCCCCCCCCCCCCCC(=O)*

Legend:
P. acnes = type: cell-based, Propionibacterium acnes
Description: (§1) 2. Bacterial strains and culture conditions. E. coli UB1005, S. aureus SAP0017 (MRSA) and C. albicans 105 were grown in Mueller Hinton (MH) (Difco, BD Biosciences, MD) agar plates and broth (2 g of beef extract, 17.5 g of acid hydrolysis of casein and 1.5 g of starch per liter) at 37° C. unless otherwise indicated. Bacteria from frozen stock were subcultured onto freshly made MH agar plates prior to susceptibility testing. For P. acnes, the bacterium was grown in BBL™ Brain-Heart infusion (Becton, Dickinson & Company, Sparks Md.) broth or agar plates at 37° C. in anaerobic condition generated using a anaerobic jar and AnaeroGen™ (Oxoid, Basingstoke, Hampshire, England).
(§2) 3. […] The minimal inhibitory concentration (MIC) of each peptide was determined using modified CLSI microtiter broth dilution assay (Methods for Dilution Antimicrobial Susceptibility Tests for Bacteria That Grow Aerobically; Approved Standard—Ninth Edition). An inoculum of 10^5-10^6 colony forming units (CFU)/ml was used or 10^4 CFU/ml for yeast. The MIC value was taken as the lowest peptide concentration at which more than 90% of microbial growth was inhibited after 15 to 20 h of incubation at 37° C. For P. acnes, the incubation was kept under anaerobic condition at 37° C. for 2 weeks before MIC was determined Kill kinetics was performed using a given concentration (about 2-5-fold MIC) of peptide mixed with indicator microorganism. After appropriate dilution the cells were plated on agar plates after defined time intervals and incubated at 37° C. overnight. In the case of P. acnes an extended incubation period was required. The CFU was counted and plotted as survival of bacteria after peptide treatment over time, which indicates the effectiveness of a peptide to kill a microbe.

E. coli UB1005 = system: E. coli UB1005
Description: (§3) We conducted the minimal inhibitory concentration (MIC) determination using CLSI (Clinical and Laboratory standard Institute) recommended standard protocol for antimicrobials (Methods for Dilution Antimicrobial Susceptibility Tests for Bacteria That Grow Aerobically; Approved Standard—Ninth Edition).
as §1, §2

C. albicans 105 = system: C. albicans 105
Description: as §3, §1, §2

S. aureus SAP0017 (MRSA) [1] = system: S. aureus SAP0017 (MRSA)
Description: as §3, §1, §2

[2] = system: EpiDerm (EPI-200) skin tissue; test: Skin tissue toxicity, EpiDerm skin model with MTT assay; type: cell-based; conditions: tissue viability (MTT), treated 20 hr
Description: 4. Skin tissue toxicity determination. Skin toxicity and compatibility was determined using EpiDerm (EPI-200) skin tissue and MTT Kit (MTT-100) (MatTek, Ashland, Mass.) according to the manufacture's instruction. 1% Triton X-100 and PBS were used as positive (toxic) and negative (non-toxic) control, respectively.
Potential for dermal irritancy of the lipodipeptides was tested using EpiDerm™ Skin Model (MatTek, Ashland, Mass.) in combination with a modified MTT assay. […] EpiDerm™ consists of organized basal, spinous, granular, and cornified layers analogous to those found in vivo. The tissues were treated with each compound at desired concentration for 20 hr.

S. aureus SAP0017 (MRSA) [3] = type: cell-based, Staphylococcus aureus; conditions: for logs of S. aureus eradicated in a kill assay: SAP0017
Description: as §2

P. acnes ATCC11827 = test: Kill kinetics in PBS; type: cell-based, Propionibacterium acnes; conditions: detection limit 10 CFU/ml
Description: as §2

[4] = system: histamine induced IL-6 expression; test: Anti-inflammatory activity in keratinocytes (data not shown); type: cell-based; conditions: human skin keratinocytes
From the text: We modified both peptides via N-terminal acetylation with lipids of various lengths to the alpha amino group of KPV and KdPT.

human dermal fibroblasts = test: Gene profiling (PCR array of extracellular matrix adhesion molecule genes); type: cell-based; conditions: 5 μg/ml, 24 h; up (+) or down (−) regulation
Description: 5. Gene profiling analysis. The 84 genes encoding extracellular matrix adhesion molecules in human dermal fibroblasts were analyzed using PCR arrays conducted by Sunny Biodiscovery, Inc (Santa Paula, Calif.). Human dermal fibroblasts were from Zen-Bio, Research Triangle Park, N.C. (cat. #DF-F, lot #DFMF112410). […] At the end of the incubation cells were observed under the inverted Nikon TS microscope.
At the end of the incubation period cells were preserved in RNAlater solution (Ambion, Austin, Tex.) for 6 h. RNA was extracted and purified with NucleoSpin RNA II kit from Machery-Nagel, Bethleem, Pa.). Purified total RNA was assessed at 230 nm, 260 nm and 280 nm with Agilent HP-8452A diode array spectrophotometer. The concentration of RNA was equalized across the samples and the expression of genes of interest was measured by real-time quantitative PCR with BioRad iCycler iQ Detection System using PCR arrays PAHS-013A (www.sabiosciences.com/rt_pcr_product/HTML/PAHS-013A.html), with 1st strand synthesis kit, SYBR Green master mix and PCR running conditions from Qiagen (formerly SA Biosciences). Efficiency ΔΔCt method was used for quantification of results, after the normalization of gene expression to 5 housekeeping genes carried with the RT2 Profiler PCR Array Data Analysis version 3.5 software.

[5] = system: P. acnes, S. aureus, E. coli and C. albicans; test: MIC / antimicrobial activity; type: cell-based; conditions: summary of MIC results of Table 1
Description: as §1, §2

SMILES | MIC P. acnes (P. acnes) | MIC E. coli (E. coli UB1005) | MIC C. albicans (C. albicans 105) | MIC S. aureus (S. aureus SAP0017 (MRSA) [1]) | Toxicity EpiDerm [2] | logs of S. aureus eradicated in a kill assay (S. aureus SAP0017 (MRSA) [3]) | further results
CC(C)[C@H](NC(=O)[C@@H]1CCCN1C(=O)[C@@H](N)CCCCN)C(=O)O [HB2067, KPV-OH, reference compound] (H-Lys-Pro-Val-OH) | >2000 µg/mL | >2000 µg/mL | >2000 µg/mL | >2000 µg/mL | >2000 µg/mL |  | 
CC(C)[C@H](NC(=O)[C@@H]1CCCN1C(=O)[C@@H](N)CCCCN)C(N)=O [HB2068, KPV-NH2, reference compound] (H-Lys-Pro-Val-NH2) | >2000 µg/mL | >2000 µg/mL | >2000 µg/mL | >2000 µg/mL | >2000 µg/mL |  | 
C[C@@H](O)[C@H](NC(=O)[C@H]1CCCN1C(=O)[C@@H](N)CCCCN)C(N)=O [HB2089, K-dPT-NH2, reference compound] (H-Lys-[dP]-Thr-NH2) | >2000 µg/mL | >2000 µg/mL | >2000 µg/mL | >2000 µg/mL | >2000 µg/mL |  | 
C[C@@H](O)[C@H](NC(=O)[C@H]1CCCN1C(=O)[C@@H](N)CCCCN)C(=O)O [HB2090, K-dPT-OH, reference compound] (H-Lys-[dP]-Thr-OH) | >2000 µg/mL | >2000 µg/mL | >2000 µg/mL | >2000 µg/mL | >2000 µg/mL |  | 
CCCCCCCCCCCCCCCC(=O)N[C@@H](CCCCN)C(=O)N1CCC[C@@H]1C(=O)N[C@H](C(N)=O)[C@@H](C)O [HB2178, Pal-K-dPT-NH2] (Palmitoyl-Lys-[dP]-Thr-NH2) | 2 µg/mL (≈ 3.44 µM) |  | 16 µg/mL (≈ 27.5 µM) |  | >2000 µg/mL | 5-6 logs | survival of microbes (CFU/ml), 0 hr (S. aureus SAP0017 (MRSA) [3]; S. aureus in PBS, 0 hr, detection limit 10 CFU/ml): 23050000 CFU/ml; survival of microbes (CFU/ml), 20 min (S. aureus SAP0017 (MRSA) [3]; S. aureus in PBS, 20 min, detection limit 10 CFU/ml): <10 CFU/ml; survival of microbes (CFU/ml), 1 hr (S. aureus SAP0017 (MRSA) [3]; S. aureus in PBS, 1 hr, detection limit 10 CFU/ml): <10 CFU/ml; survival of microbes (CFU/ml), 2 hr (S. aureus SAP0017 (MRSA) [3]; S. aureus in PBS, 2 hr, detection limit 10 CFU/ml): <10 CFU/ml; survival of microbes (CFU/ml), 3 hr (S. aureus SAP0017 (MRSA) [3]; S. aureus in PBS, 3 hr, detection limit 10 CFU/ml): <10 CFU/ml; survival of microbes (CFU/ml), 0 hr (P. acnes ATCC11827; 0 hr): 750000 CFU/ml; survival of microbes (CFU/ml), 20 min (P. acnes ATCC11827; 20 min): 20 CFU/ml; survival of microbes (CFU/ml), 1 hr (P. acnes ATCC11827; 1 hr): <10 CFU/ml; survival of microbes (CFU/ml), 2 hr (P. acnes ATCC11827; 2 hr): <10 CFU/ml; survival of microbes (CFU/ml), 3 hr (P. acnes ATCC11827; 3 hr): <10 CFU/ml
CCCCCCCCCCCCCCCC(=O)N[C@@H](CCCCN)C(=O)N1CCC[C@H]1C(=O)N[C@H](C(N)=O)C(C)C [HB2180, Pal-KPV-NH2] (Palmitoyl-Lys-Pro-Val-NH2) | 1 to 2 µg/mL | 128 µg/mL (≈ 221 µM) | 16 µg/mL (≈ 27.6 µM) | 8 µg/mL (≈ 13.8 µM) | >2000 µg/mL | 5-6 logs | 
CCCCCCCCCCCCCCCC(=O)N[C@@H](CCCCN)C(=O)N1CCC[C@H]1C(N)=O [HB2202, Pal-KP-NH2] (Palmitoyl-Lys-Pro-NH2) | 1 µg/mL (≈ 2.08 µM) | 64 µg/mL (≈ 133 µM) | 16 µg/mL (≈ 33.3 µM) | 16 µg/mL (≈ 33.3 µM) | >2000 µg/mL |  | 
CCCCCCCCCCCCCCCC(=O)N[C@@H](CCCCN)C(=O)N1CCC[C@@H]1C(N)=O [HB2203, Pal-K-dP-NH2] (Palmitoyl-Lys-[dP]-NH2) | 1 to 2 µg/mL | 128 µg/mL (≈ 266 µM) | 16 µg/mL (≈ 33.3 µM) | 8 µg/mL (≈ 16.6 µM) | >2000 µg/mL |  | 
CCCCCCCCCCCCCCCC(=O)N[C@@H](CCCCN)C(=O)N1CCC[C@H]1C(=O)N[C@@H](C)C(N)=O [HB2208, Pal-KPA-NH2] (Palmitoyl-Lys-Pro-Ala-NH2) | 1 µg/mL (≈ 1.81 µM) | 128 µg/mL (≈ 232 µM) | 16 µg/mL (≈ 29 µM) | 16 µg/mL (≈ 29 µM) | >2000 µg/mL | 5-6 logs | 
CCCCCCCCCCCCCCCC(=O)N[C@@H](CCCCN)C(=O)N1CCC[C@H]1C(=O)N[C@@H](CC(C)C)C(N)=O [HB2209, Pal-KPL-NH2] (Palmitoyl-Lys-Pro-Leu-NH2) | 4 to 8 µg/mL | >2000 µg/mL | 32 µg/mL (≈ 53.9 µM) | 16 µg/mL (≈ 26.9 µM) | >2000 µg/mL | 5-6 logs | 
NCCCC[C@H](N)C(=O)N1CCC[C@H]1C(N)=O [HB2230, KP-NH2] (H-Lys-Pro-NH2; N-terminus assumed) | >2000 µg/mL | >2000 µg/mL | >2000 µg/mL | >2000 µg/mL |  |  | anti-inflammatory activity against histamine induced IL-6 expression [4]: moderate anti-inflammatory activity
NCCCC[C@H](N)C(=O)N1CCC[C@@H]1C(N)=O [HB2231, K-dP-NH2] (H-Lys-[dP]-NH2; N-terminus assumed) | >2000 µg/mL | >2000 µg/mL | >2000 µg/mL | >2000 µg/mL |  |  | anti-inflammatory activity against histamine induced IL-6 expression [4]: moderate anti-inflammatory activity
CCCCCCCCCCCCCCCC(=O)N[C@@H](CCCCN)C(=O)N[C@@H](CCCNC(=N)N)C(N)=O [HB2259, Pal-KR-NH2] (Palmitoyl-Lys-Arg-NH2) | <1 µg/mL | 8 µg/mL (≈ 14.8 µM) | 16 µg/mL (≈ 29.6 µM) | 2 µg/mL (≈ 3.71 µM) |  |  | Fold change (peptide vs. PBS control) ADAMTS (human dermal fibroblasts): 2.4284 Fold change; Fold change (peptide vs. PBS control) CDH1 (human dermal fibroblasts): 1.0718 Fold change; Fold change (peptide vs. PBS control) COL1A1 (human dermal fibroblasts): −1.8661 Fold change; Fold change (peptide vs. PBS control) COL8A1 (human dermal fibroblasts): −2.5847 Fold change; Fold change (peptide vs. PBS control) HAS1 (human dermal fibroblasts): −3.0314 Fold change; Fold change (peptide vs. PBS control) ITGA2 (human dermal fibroblasts): 1.3195 Fold change; Fold change (peptide vs. PBS control) ITGA7 (human dermal fibroblasts): −1.8661 Fold change; Fold change (peptide vs. PBS control) ITGB2 (human dermal fibroblasts): 2.1435 Fold change; Fold change (peptide vs. PBS control) KAL1 (human dermal fibroblasts): 1.2311 Fold change; Fold change (peptide vs. PBS control) MMP1 (human dermal fibroblasts): 1.1487 Fold change; Fold change (peptide vs. PBS control) MMP8 (human dermal fibroblasts): 2.1435 Fold change; Fold change (peptide vs. PBS control) MMP9 (human dermal fibroblasts): −2.1435 Fold change; Fold change (peptide vs. PBS control) MMP10 (human dermal fibroblasts): 1.6245 Fold change; Fold change (peptide vs. PBS control) MMP13 (human dermal fibroblasts): −3.249 Fold change; Fold change (peptide vs. PBS control) MMP14 (human dermal fibroblasts): −2.4623 Fold change; Fold change (peptide vs. PBS control) SELE (human dermal fibroblasts): 1.0718 Fold change; Fold change (peptide vs. PBS control) THBS3 (human dermal fibroblasts): −1.6245 Fold change; antimicrobial activity (in words) [5]: broad spectrum antimicrobial activity
